Results reported in patent US9114180B2, “Malodor neutralizing compositions containing acids and alicyclic ketones” (Robertet, Inc., priority 2012, dated 2015).
Where “and” joins values, the source holds several entries; their conditions need not be identical. Equal entries are not always repeated.

Assays:
[1] = Malodor evaluation panel, cigarette smoke on cotton swatches; settings: for (Score of Acid) − (Score of Combination) / (Score of Ketone) − (Score of Combination): cigarette smoke malodor; for Score of Ketone Alone @ 1%: average of 14, Table 3
Procedure: The source of the malodor tested was cigarette smoke. Swatches of 100% untreated cotton fabric were cut into 15 cm (6-inch) squares and were placed in large plastic containers. Two cigarettes were smoked up inside the plastic containers containing the swatches with closed lids. The environment inside each closed container was allowed to equilibrate for 24 hours. Onto each swatch, 3.0 grams of a composition was sprayed. As a control, 3.0 grams of water was sprayed on certain swatches. Each swatch was placed in the middle of a two by two foot (61×61 cm) cubicle and all doors were closed. Actual testing began after thirty minutes. Each member of the panel was asked to sniff the malodor control first and was notified that the control has a rating of 7—indicating very strong malodor. They were then asked to proceed to sniff the other samples and provide a rating for malodor remaining. Thus, the remaining malodor was evaluated on a sliding scale, with 1 being very weak malodor. The panelists were instructed to ignore any fragrance that they may detect and rate only the malodor. […] Neodol 91-8 and the fabric spray base were the same as those described in Example 1.

[2] = Malodor evaluation panel, synthetic bathroom malodor on cotton swatches; settings: for Score of Ketone Alone @ 1%: average of 14; for Score of Combination @ 1% + 1%: ketone 1% + undecylenic acid 1%; for (Score of Acid) − (Score of Combination) / (Score of Ketone) − (Score of Combination): synthetic bathroom malodor; for (Score of Acid) − (Score of Combination): acid = undecylenic acid; for (Score of Ketone) − (Score of Combination): combination with undecylenic acid
[3] = Malodor evaluation panel, cat urine on cotton swatches; set-up: key to (Score of Ketone) − (Score of Combination) / (score of citric acid) − (score of combination): difference of malodor scores, 1 = very weak to 7 = very strong (control); settings: for (Score of Ketone) − (Score of Combination) / (score of citric acid) − (score of combination): cat urine malodor, combination with citric acid; for Score of combination 1% + 1% / Score alone 1% (alicyclic ketone): remaining cat urine malodor; for Score of combination 1% + 1%: scale 1-7, ketone 1% + citric acid 1% in spray, average of 14; for Score alone 1% (alicyclic ketone): scale 1 very weak to 7 (control, very strong), ketone 1% in spray, average of 14 panelists
Text: The source of the malodor tested was cat urine. […] A period of three minutes was allowed for the urine to be absorbed by the fabric. Onto each swatch, 3.0 grams of a composition was sprayed. As a control, 3.0 grams of water was sprayed on certain swatches. Each swatch was placed in the middle of a two by two foot (61×61 cm) cubicle and all doors were closed. Actual testing began after thirty minutes. Each member of the panel was asked to sniff the malodor control first and was notified that the control has a rating of 7—indicating very strong malodor. They were then asked to proceed to sniff the other samples and provide a rating for malodor remaining. Thus, the remaining malodor was evaluated on a sliding scale, with 1 being very weak malodor. The panelists were instructed to ignore any fragrance that they may detect and rate only the malodor. […] The fabric spray base was an aqueous solution containing 75% distilled water, 20% ethanol, and 5% of non-ionic surfactant. […] The scores reported are therefore the average of 14 replications. The ionones and irones tested were racemic mixtures of their respective α, β, and γ-isomers. The table sets forth what is believed to be the dominant isomer. Apparent duplications (Tests 5, 6 and 8; Tests 10 and 11) are tests on substances obtained from different sources, and have different mixtures of isomers. […] The ionones tested were mixtures of α, β and γ isomers; the table sets for the dominant isomer.

[4] = Malodor evaluation panel, synthetic bathroom malodor on cotton swatches
Text: A malodor evaluation panel of 14 persons was assembled and asked to evaluate the odor neutralizing effectiveness of citric acid and dihydro-β-ionone, either alone or in combination. The source of the malodor tested was synthetic bathroom malodor.
Swatches of 100% untreated cotton fabric were cut into 15 cm (6-inch) squares and were placed on weighing boats. 0.5 grams of synthetic bathroom malodor was pipetted onto each of the swatches. A period of three minutes was allowed for the malodor to be absorbed by the fabric.
Onto each swatch, 3.0 grams of a composition was sprayed. As a control, 3.0 grams of water was sprayed on certain swatches.
Each swatch was placed in the middle of a two by two foot (61×61 cm) cubicle and all doors were closed. Actual testing began after thirty minutes.
They were then asked to proceed to sniff the other samples and provide a rating for malodor remaining. Thus, the remaining malodor was evaluated on a sliding scale, with 1 being very weak malodor. The panelists were instructed to ignore any fragrance that they may detect and rate only the malodor.
For the spray compositions containing citric acid or dihydro-β-ionone alone, each spray composition (having a total weight of 20.00 g) consisted of:
For the spray composition containing both citric acid and dihydro-β-ionone, the spray composition (having a total weight of 20.00 g) consisted of:
Neodol 91-8 and the fabric spray base were the same as those described in Example 1.
Each panelist tested citric acid, dihydro-β-ionone, and their combinations. The scores reported are therefore the average of 14 replications.
The results are summarized in Table 6, in which the scores reported are the average of 14 replications.

[5] = remaining synthetic bathroom malodor, scale 1-7, Table 6
[6] = remaining synthetic bathroom malodor, scale 1-7
[7] = remaining cigarette smoke malodor, scale 1-7
[8] = remaining cigarette smoke malodor, scale 1-7, ketone 1% + citric acid 1%

Row | Compound | (Score of Ketone) − (Score of Combination) [3] | (score of citric acid) − (score of combination) [3] | Score of combination 1% + 1% [3] | Score alone 1% (alicyclic ketone) [3] | Score of Ketone Alone @ 1% [2, 5] | Score of Combination @ 1% + 1% [2, 6] | (Score of Acid) − (Score of Combination) [2] | (Score of Ketone) − (Score of Combination) [2] | other results
1 | C=CCCCCCCCCC(=O)O [undecylenic acid] |  |  |  |  |  |  |  |  | Score of Undecylenic Acid @ 1% ([1]; remaining cigarette smoke malodor, scale 1-7, undecylenic acid alone): 4.20; Score of Undecylenic Acid @ 1% ([2]; remaining synthetic bathroom malodor, scale 1-7, undecylenic acid alone, in the test of that line): 5.00 and 4.30 and 5.10 and 5.20
2 | CC(=O)/C=C/C1C(C)=CCCC1(C)C (stereo not drawn) [α-ionone] | 1.10 | 0.10 | 3.10 | 4.20 |  |  |  |  | 
3 | CCC(=O)/C=C/C1=C(C)CCCC1(C)C [methyl β-ionone] | 0.10 | 0.90 | 3.40 | 3.50 |  |  |  |  | 
4 | CC(=O)CCC1=C(C)CCCC1(C)C [dihydro-β-ionone] | 1.40 | 0.80 | 2.50 | 3.90 |  |  |  |  | Score of Combination @ 1% + 1% ([4]; remaining synthetic bathroom malodor, scale 1-7, ketone 1% + citric acid 1%): 3.60; (Score of Acid) − (Score of Combination) ([4]; synthetic bathroom malodor, acid = citric acid): 1.40; (Score of Ketone) − (Score of Combination) ([4]; synthetic bathroom malodor, combination with citric acid): 0.10; Score of Ketone Alone @ 1% ([2]; remaining synthetic bathroom malodor, scale 1-7, Table 5): 3.70
5 | CCC(=O)C=CC1C(C)=CCCC1(C)C (centres unmarked) [1-(2,6,6-trimethyl-2-cyclohexen-1-yl)pent-1-en-3-one] |  |  |  |  | 2.80 | 2.70 | 2.50 | 0.10 | 
6 | CC(=O)/C=C/C1=C(C)CCCC1(C)C [β-ionone] | 0.70 | 1.00 | 3.10 | 3.80 | 4.60 | 3.30 | 1.80 | 1.30 | 
7 | CC(C)(C)C1CCCCC1=O (centres unmarked) [2-tert-butylcyclohexanone] |  |  |  |  | 4.50 | 4.10 | 0.20 | 0.40 | 
8 | CC(=O)/C=C/C1C(C)=CCC(C)C1(C)C (stereo not drawn) [α-irone] | 0.20 | 0.00 | 3.70 | 3.90 |  |  |  |  | 
9 | CCC(C)(C)C1CCC(=O)CC1 [4-tert-pentylcyclohexanone] | 0.60 | 0.50 | 2.90 | 3.50 |  |  |  |  | (Score of Acid) − (Score of Combination) ([1]; acid = citric acid): 0.80; (Score of Ketone) − (Score of Combination) ([1]; combination with citric acid): 0.30; Score of Ketone Alone @ 1% [1, 7]: 3.40; Score of Combination @ 1% + 1% [1, 8]: 3.10
10 | methyl α-ionone |  |  |  |  | 3.80 | 3.40 | 1.60 | 0.40 | (Score of Acid) − (Score of Combination) ([1]; acid = citric acid): 1.10; (Score of Acid) − (Score of Combination) ([1]; acid = undecylenic acid): 1.40; (Score of Ketone) − (Score of Combination) ([1]; combination with citric acid): 0.50; (Score of Ketone) − (Score of Combination) ([1]; combination with undecylenic acid): 0.10; Score of Ketone Alone @ 1% [1, 7]: 4.20; Score of Combination @ 1% + 1% [1, 8]: 3.70; Score of Combination @ 1% + 1% ([1]; remaining cigarette smoke malodor, scale 1-7, ketone 1% + undecylenic acid 1%): 2.80
11 | citric acid |  |  |  |  |  |  |  |  | Score of Citric Acid @ 1% ([1]; remaining cigarette smoke malodor, scale 1-7, citric acid alone, in the test of that line): 3.90 and 4.80; Score of Citric Acid @ 1% ([4]; remaining synthetic bathroom malodor, scale 1-7, citric acid alone): 5.00
